# Test results from patent US4670440A (priority 1985, dated 1987).
# “Also recorded” adds a separate entry of the source.
# How the values were obtained:
# [1] = test system: Staphylococcus aureus; experiment: Minimal inhibiting concentration (MIC), agar-diffusion technique, series diluting method; settings: norfloxacin dissolved in dimethyl-sulphoxide, THA salt in water
# [2] = test system: E. Coli; experiment: as above; assay type: cell-based; settings: in vitro; norfloxacin dissolved in dimethyl-sulphoxide, THA salt in water; listed as Norfloxacin-THA-salt
# [3] = Watersolubility (literature / general statement); assay type: physicochemical; settings: water, new compound of the Formula I
# [4] = test system: Pseudomonas Aeruginosa; experiment: Minimal inhibiting concentration (MIC), agar-diffusion technique, series diluting method; settings: norfloxacin dissolved in dimethyl-sulphoxide, THA salt in water
# [5] = Absorption by the organism / through the intestines; assay type: in vivo; settings: compound according to the invention; no test data shown
# [6] = because of the low solubility; cited from earlier work
# [7] = test system: Pseudomonas aeruginosa and gram positive and gram negative bacteria; settings: Antimicrobial Agents and Chemotherapy 1980, 17, 103-108; cited from earlier work
# [8] = in vitro, listed as Norfloxacin-THA-salt
Compound,"MIC value [1, 8] [µg/mL]",MIC value [2] [µg/mL],solubility [3] [mg/mL],"MIC value [4, 8] [µg/mL]",absorption (in words) [5],biological utilization [5],material absorbed going through the intestines [6],"MIC ([1]; Staphylococcus aureus, read-out: MIC value, in vitro) [µg/mL]","MIC ([4]; Pseudomonas aeruginosa, read-out: MIC value, in vitro) [µg/mL]",activity in the therapy of urethral infections [7]
"CCn1cc(C(=O)O)c(=O)c2cc(F)c(N3CCNCC3)cc21 [Compound of the Formula I, N,N,N-trimethyl-2-hydroxyethyl-ammonium-[1-ethyl-6-fluoro-4-oxo-7-(1-piperazinyl)-1,4-dihydro-quinoline-3-carboxylate]]",0.25,0.05 to 0.25,> 1000,0.25 to 0.5,better absorption; also recorded: quick absorption; also recorded: excellent absorption,good biological utilization,,,,
"CCn1cc(C(=O)O)c(=O)c2cc(F)c(N3CCNCC3)cc21 [Norfloxacin, 1-ethyl-4-oxo-6-fluoro-7-(1-piperazinyl)-1,4-dihydro-quinoline-3-carboxylic acid, reference compound]",,,,,,,about 40%,0.25 to 0.5,0.5 to 0.75,good activity
